US12522576B2, “Polymorphs of D9-THC naphthoylester” (priority 2019, dated 2026)
In brackets after ≈: the same amount, converted by molar mass.

Key:
[1] = D9 solubility in the liquors at isolation temperature; format: physicochemical; conditions: organic solvent or mixture, thermodynamic from solid
Description: At the end of each experiment, suspensions were equilibrated at the isolation temperature (25 or 5° C.) for at least 18 hours and the solids and liquors separated by centrifugation at the isolation temperature. The Exo/D9/D8 ratio (Exo-D9-THC-naphthoylester impurity/D9-THC-naphthoylester/D8-THC-naphthoylester) was determined in both the isolated solids and the liquors, from which the % Exo-depletion in the isolated solids was calculated. Several solids were also isolated at elevated temperatures to assess the impact of the isolation temperature on Exo-impurity depletion.
In addition, the solubility of D9 in the liquors was determined in most of the explored solvents and used to estimate the yield.

[2] = Competitive ripening (relative thermodynamic stability of non-solvated forms)

CCCCCc1cc(OC(=O)c2ccc3ccccc3c2)c2c(c1)OC(C)(C)[C@@H]1CCC(C)=C[C@@H]21 [Form B, (6aR,10aR)-6a,7,8,10a-tetrahydro-6,6,9-trimethyl-3-pentyl-6H-dibenzo[b,d]pyran-1-yl ester]
solubility ([1]; Cyclohexanone/MeOH (1:9), 25 °C, batch 5, Cyclohexanone/MeOH (1:9), seed G/H, heat T 60, isolation T 25, SP 12, 10.0 mL/g): 7600 µg/mL (≈ 16.2 mM)
solubility ([1]; DMF/MeOH (1:9), 25 °C, batch 5, DMF/MeOH (1:9), seed D, heat T 50, isolation T 25, SP 2, 8.9 mL/g): 5200 µg/mL (≈ 11.1 mM)
solubility ([1]; DMF/MeOH (1:9), 25 °C, batch 5, DMF/MeOH (1:9), seed G, heat T 50, isolation T 25, SP 3, 9.4 mL/g): 4700 µg/mL (≈ 10 mM)
solubility ([1]; DMF/MeOH (1:9), 25 °C, batch 5, DMF/MeOH (1:9), seed G, heat T 60, isolation T 25, SP 9, 10.0 mL/g): 5100 µg/mL (≈ 10.9 mM)
solubility ([1]; DMSO/MeOH (1:9), 25 °C, batch 5, DMSO/MeOH (1:9), seed D, heat T 50, isolation T 25, SP 2, 8.2 mL/g): 4100 µg/mL (≈ 8.75 mM)
solubility ([1]; DMSO/MeOH (1:9), 25 °C, batch 5, DMSO/MeOH (1:9), seed D/G, heat T 60, isolation T 25, SP 9, 10.0 mL/g): 4200 µg/mL (≈ 8.96 mM)
solubility ([1]; DMSO/MeOH (1:9), 25 °C, batch 5, DMSO/MeOH (1:9), seed G, heat T 50, isolation T 25, SP 4, 9.4 mL/g): 3700 µg/mL (≈ 7.9 mM)
solubility ([1]; DMSO/MeOH (3:7), 25 °C, batch 5, DMSO/MeOH (3:7), seed D, heat T 50, isolation T 25, SP 2, 7.1 mL/g): 7500 µg/mL (≈ 16 mM)
solubility ([1]; DMSO/MeOH (3:7), 25 °C, batch 5, DMSO/MeOH (3:7), seed G, heat T 50, isolation T 25, SP 4, 5.2 mL/g): 7000 µg/mL (≈ 14.9 mM)
solubility ([1]; DMSO/acetone/MeOH (1.5:1.5:7), 25 °C, batch 5, DMSO/acetone/MeOH (1.5:1.5:7), seed D, heat T 50, isolation T 25, SP 2, 5.0 mL/g): 9100 µg/mL (≈ 19.4 mM)
solubility ([1]; DMSO/acetone/MeOH (1.5:1.5:7), 25 °C, batch 5, DMSO/acetone/MeOH (1.5:1.5:7), seed G, heat T 50, isolation T 25, SP 4, 5.1 mL/g): 7200 µg/mL (≈ 15.4 mM)
solubility ([1]; EtOAc/EtOH (1:9), 25 °C, batch 5, EtOAc/EtOH (1:9), seed H, heat T 55, isolation T 25, SP 21, 10.0 mL/g): 12000 µg/mL (≈ 25.6 mM)
solubility ([1]; EtOAc/MeOH (1:3), 5 °C, batch 5, EtOAc/MeOH (1:3), seed G, heat T 25, isolation T 5, SP 11, 30.0 mL/g): 11200 µg/mL (≈ 23.9 mM)
solubility ([1]; IPA, 25 °C, batch 5, IPA, seed G/H, heat T 50, isolation T 25, SP 14, 10.0 mL/g): 7300 µg/mL (≈ 15.6 mM)
solubility ([1]; IPA/water (95:5), 25 °C, batch 5, IPA/water (95:5), seed G/H, heat T 60, isolation T 25, SP 12, 10.0 mL/g): 4500 µg/mL (≈ 9.6 mM)
solubility ([1]; MEK/IPA (1:9), 25 °C, batch 5, MEK/IPA (1:9), seed G/H, heat T 55, isolation T 25, SP 15, 5.0 mL/g): 17200 µg/mL (≈ 36.7 mM)
solubility ([1]; MEK/MeOH (1:9), 25 °C, batch 5, MEK/MeOH (1:9), seed G/H, heat T 60, isolation T 25, SP 12, 10.0 mL/g): 4500 µg/mL (≈ 9.6 mM)
solubility ([1]; MEK/MeOH (3:7), 5 °C, batch 5, MEK/MeOH (3:7), seed G, heat T 25, isolation T 5, SP 11, 30.0 mL/g): 15800 µg/mL (≈ 33.7 mM)
solubility ([1]; MEK/MeOH (3:7), 25 °C, batch 5, MEK/MeOH (3:7), seed G, heat T 25, isolation T 25, SP 7, 30.0 mL/g): 16800 µg/mL (≈ 35.8 mM)
solubility ([1]; MeOH, 25 °C, batch 5, MeOH, seed E/G, heat T 50, isolation T 25, SP 3, 9.8 mL/g): 5000 µg/mL (≈ 10.7 mM)
solubility ([1]; Toluene/EtOH (5:95), 25 °C, batch 5, Toluene/EtOH (5:95), seed H, heat T 55, isolation T 25, SP 21, 12.0 mL/g): 10300 µg/mL (≈ 22 mM)
solubility ([1]; Toluene/MeOH (1:9), 5 °C, batch 5, Toluene/MeOH (1:9), seed G, heat T 40, isolation T 5, SP 10, 30.0 mL/g): 8700 µg/mL (≈ 18.6 mM)
solubility ([1]; crystallisation liquors over suspended solid, 5 °C, batch 5, p-Xylene/MeOH (1:9), seed G, heat T 25, isolation T 5, SP 11, 40.0 mL/g): 9200 µg/mL (≈ 19.6 mM)
solubility ([1]; crystallisation liquors over suspended solid, 25 °C, batch 2, IPA/water (95:5), seed G/H, heat T 55, isolation T 25, SP 13, 10.0 mL/g): 5600 µg/mL (≈ 11.9 mM)
solubility ([1]; crystallisation liquors over suspended solid, 25 °C, batch 2, IPA/water (99:1), seed G/H, heat T 55, isolation T 25, SP 13, 10.0 mL/g): 7300 µg/mL (≈ 15.6 mM)
solubility ([1]; crystallisation liquors over suspended solid, 25 °C, batch 5, Anisole/MeOH (1:9), seed G, heat T 40, isolation T 25, SP 8, 30.0 mL/g): 9600 µg/mL (≈ 20.5 mM)
solubility ([1]; crystallisation liquors over suspended solid, 25 °C, batch 5, Cyclohexanone/IPA (1:9), seed G/H, heat T 45, isolation T 25, SP 15, 2.5 mL/g): 59200 µg/mL (≈ 126 mM)
solubility ([1]; crystallisation liquors over suspended solid, 25 °C, batch 5, EtOAc/IPA (1:9), seed G/H, heat T 55, isolation T 25, SP 15, 7.4 mL/g): 15100 µg/mL (≈ 32.2 mM)
solubility ([1]; crystallisation liquors over suspended solid, 25 °C, batch 5, EtOAc/MeOH (1:3), seed G, heat T 40, isolation T 25, SP 8, 30.0 mL/g): 11300 µg/mL (≈ 24.1 mM)
solubility ([1]; crystallisation liquors over suspended solid, 25 °C, batch 5, EtOH, seed E/G, heat T 50, isolation T 25, SP 3, 9.6 mL/g): 6900 µg/mL (≈ 14.7 mM)
solubility ([1]; crystallisation liquors over suspended solid, 25 °C, batch 5, MEK/EtOH (1:9), seed G/H, heat T 55, isolation T 25, SP 15, 10.0 mL/g): 11200 µg/mL (≈ 23.9 mM)
solubility ([1]; crystallisation liquors over suspended solid, 25 °C, batch 5, Toluene/MeOH (1:9), seed G, heat T 40, isolation T 25, SP 8, 30.0 mL/g): 8400 µg/mL (≈ 17.9 mM)
solubility ([1]; crystallisation liquors over suspended solid, 25 °C, batch 5, Toluene/MeOH (3:7), seed G, heat T 40, isolation T 25, SP 3, 5.5 mL/g): 53500 µg/mL (≈ 114 mM)
solubility ([1]; crystallisation liquors over suspended solid, 25 °C, batch 5, n-BuOH, seed E/G, heat T 50, isolation T 25, SP 3, 9.8 mL/g): 14800 µg/mL (≈ 31.6 mM)
solubility ([1]; crystallisation liquors over suspended solid, 25 °C, batch 5, n-BuOH, seed G, heat T 40, isolation T 25, SP 8, 10.0 mL/g): 16700 µg/mL (≈ 35.6 mM)
solubility ([1]; liquors of the equilibrated crystallisation suspension, 25 °C, batch 2, IPA/water (95:5), seed G/H, heat T 55, isolation T 25, 10.0 mL/g, SP 13, Exp 43): 5600 µg/mL (≈ 11.9 mM)
solubility ([1]; liquors of the equilibrated crystallisation suspension, 25 °C, batch 2, IPA/water (99:1), seed G/H, heat T 55, isolation T 25, 10.0 mL/g, SP 13, Exp 45): 7300 µg/mL (≈ 15.6 mM)
solubility ([1]; liquors of the equilibrated crystallisation suspension, 25 °C, batch 5, Cyclohexanone/EtOH (1:9), seed G/H, heat T 55, isolation T 25, 5.0 mL/g, SP 16, Exp 32): 21100 µg/mL (≈ 45 mM)
solubility ([1]; liquors of the equilibrated crystallisation suspension, 25 °C, batch 5, Cyclohexanone/IPA (1:9), seed G/H, heat T 45, isolation T 25, 2.5 mL/g, SP 15, Exp 39): 59200 µg/mL (≈ 126 mM)
solubility ([1]; liquors of the equilibrated crystallisation suspension, 25 °C, batch 5, Cyclohexanone/MeOH (1:9), seed G/H, heat T 60, isolation T 25, 10.0 mL/g, SP 12, Exp 30): 7600 µg/mL (≈ 16.2 mM)
solubility ([1]; liquors of the equilibrated crystallisation suspension, 25 °C, batch 5, EtOAc/EtOH (1:9), seed H, heat T 55, isolation T 25, 10.0 mL/g, SP 21, Exp 28): 12000 µg/mL (≈ 25.6 mM)
solubility ([1]; liquors of the equilibrated crystallisation suspension, 25 °C, batch 5, EtOAc/IPA (1:9), seed G/H, heat T 55, isolation T 25, 7.4 mL/g, SP 15, Exp 35): 15100 µg/mL (≈ 32.2 mM)
solubility ([1]; liquors of the equilibrated crystallisation suspension, 25 °C, batch 5, IPA/water (95:5), seed G/H, heat T 60, isolation T 25, 10.0 mL/g, SP 12, Exp 29): 4500 µg/mL (≈ 9.6 mM)
solubility ([1]; liquors of the equilibrated crystallisation suspension, 25 °C, batch 5, IPA, seed G/H, heat T 50, isolation T 25, 10.0 mL/g, SP 14, Exp 31): 7300 µg/mL (≈ 15.6 mM)
solubility ([1]; liquors of the equilibrated crystallisation suspension, 25 °C, batch 5, MEK/EtOH (1:9), seed G/H, heat T 55, isolation T 25, 10.0 mL/g, SP 15, Exp 40): 11200 µg/mL (≈ 23.9 mM)
solubility ([1]; liquors of the equilibrated crystallisation suspension, 25 °C, batch 5, MEK/IPA (1:9), seed G/H, heat T 55, isolation T 25, 5.0 mL/g, SP 15, Exp 25): 17200 µg/mL (≈ 36.7 mM)
solubility ([1]; liquors of the equilibrated crystallisation suspension, 25 °C, batch 5, MEK/MeOH (1:9), seed G/H, heat T 60, isolation T 25, 10.0 mL/g, SP 12, Exp 27): 4500 µg/mL (≈ 9.6 mM)
solubility ([1]; liquors of the equilibrated crystallisation suspension, 25 °C, batch 5, Toluene/EtOH (5:95), seed H, heat T 55, isolation T 25, 12.0 mL/g, SP 21, Exp 33): 10300 µg/mL (≈ 22 mM)
solubility ([1]; n-BuOH/MeOH (1:3), 25 °C, batch 5, n-BuOH/MeOH (1:3), seed E/G, heat T 50, isolation T 25, SP 3, 9.4 mL/g): 5600 µg/mL (≈ 11.9 mM)
solubility ([1]; n-BuOH/MeOH (1:3), 25 °C, batch 5, n-BuOH/MeOH (1:3), seed G, heat T 60, isolation T 25, SP 9, 10.0 mL/g): 6000 µg/mL (≈ 12.8 mM)
solubility ([1]; p-Xylene/MeOH (1:9), 25 °C, batch 5, p-Xylene/MeOH (1:9), seed G, heat T 25, isolation T 25, SP 7, 40.0 mL/g): 9800 µg/mL (≈ 20.9 mM)
Relative thermodynamic stability [2]: metastable form
Nature (thermodynamic stability of crystal form) ([2]; Table 6 summary): Metastable
